Measured values taken from US20260334439A1, “BCAT2 INHIBITORS” (Agios Pharmaceuticals, Inc., priority 2023, published 2026).

What was measured:
[1] = biological target: T1, BCAT2 (Homo sapiens, UniProt O15382); assay: BCAT2 in vitro enzyme inhibition assay (hBCAT2, glutamate dehydrogenase/diaphorase/resazurin coupled fluorescence read); assay type: biochemical; settings: hBCAT2, 1 h preincubation at 25° C., one hour reaction; average where tested multiple times
T1 sequence (O15382 28-392): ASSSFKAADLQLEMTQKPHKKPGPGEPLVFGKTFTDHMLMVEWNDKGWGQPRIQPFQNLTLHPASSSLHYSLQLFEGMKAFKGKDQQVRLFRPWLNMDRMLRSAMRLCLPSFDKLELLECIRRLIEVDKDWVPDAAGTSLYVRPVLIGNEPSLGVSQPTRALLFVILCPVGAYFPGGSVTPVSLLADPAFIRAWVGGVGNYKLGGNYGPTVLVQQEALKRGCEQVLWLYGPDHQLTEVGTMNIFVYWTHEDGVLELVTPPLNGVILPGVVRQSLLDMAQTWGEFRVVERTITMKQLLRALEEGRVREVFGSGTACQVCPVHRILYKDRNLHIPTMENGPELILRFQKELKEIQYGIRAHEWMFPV
Outline: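 hBCAT2 (0.33 μg/mL in mix) preincubated 1 h at 25 °C with compound (top 100 μM, 3-fold, 10 points) in Tris pH 8.0/NaCl/BSA; substrate mix added (L-leucine, α-ketoglutarate, GDH, NAD, diaphorase, resazurin), quenched with SDS after 1 h, fluorescence Ex 540/Em 590; duplicates, repeat tests averaged.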

[2] = biological target: T1, BCAT2; assay: BCAT2 cell inhibition using engineered A549 cells (MUT KO, BCAT1 KO; 13C6-KMV formation by LC-MS/MS); assay type: cell-based; design: expressed endogenous BCAT2; endogenous in cells; host or cells: A549 cells, MUT knockout and BCAT1 knockout
Outline: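 Medium 13C6-KMV formation is read by LC-MS/MS after PFBHA derivatization with d8-KMV internal standard. Cells are CRISPR MUT/BCAT1 double-knockout A549 expressing endogenous BCAT2, given compound 15 min before labelled isoleucine (800 uM, added 1:1) for 24 h. CTG viability run in parallel; replicates averaged.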

IC50 [1] [nM] | IC50 [2] [nM] | SMILES
< 100 | < 100 | O=C1c2cc(F)ccc2OCN1[C@H]1CCC[C@@H](n2c(-c3ccccc3OC(F)F)nc3cnc(-c4nc[nH]n4)cc32)C1 [compound 211]
< 100 | < 100 | O=C1c2cc(F)ccc2CN1[C@H]1CCC[C@@H](n2c(-c3ccccc3OC(F)F)nc3ccc(-c4nc[nH]n4)c(F)c32)C1 [compound 238]
< 100 | 100 to 500 | O=C1c2cc(F)ccc2CN1[C@H]1CCC[C@@H](n2c(-c3c(F)cccc3OC(F)F)nc3ccc(-c4nc[nH]n4)cc32)[C@@H]1O [compound 240]
